Data as given in ChEMBL document CHEMBL3044589, “Effects of propylene oxide doses on Cyperus and Belonolaimus control and nutrient absorption in tomato” (2007).
The source made the active and inactive calls. The rule behind the calls is not given here.

Assays:
[1] = system: Solanum lycopersicum; assay: Increase in Solanum lycopersicum (tomato) plant yield at […] applied 12 days prior to transplantation measured after 12 to 14 weeks relative to untreated-control; format: functional
[2] = system: Solanum lycopersicum; assay: Increase in Solanum lycopersicum (tomato) plant yield at 190 to 950 l/ha applied 12 days prior to transplantation measured after 12 to 14 weeks; format: functional, organism-based
[3] = system: Cyperus; assay: Herbicidal activity against Cyperus at 850 l/ha applied 12 days prior to tomato transplantation measured after 14 weeks relative to control; format: functional
[4] = system: Solanum lycopersicum; assay: Increase in Solanum lycopersicum (tomato) foliar phosphorus concentration at 190 to 950 l/ha applied 12 days prior to transplantation measured after 4 weeks (reference value: 0.31%); format: functional
[5] = system: Solanum lycopersicum; assay: Increase in Solanum lycopersicum (tomato) foliar potassium concentration at 190 to 950 l/ha applied 12 days prior to transplantation measured after 4 weeks (reference value: 2.38%); format: functional
[6] = system: Cyperus; assay: Herbicidal activity against Cyperus at 775 l/ha applied 12 days prior to tomato transplantation measured after 8 weeks relative to control; format: functional
[7] = system: Cyperus; assay: Herbicidal activity against Cyperus at 190 to 950 l/ha applied 12 days prior to tomato transplantation measured after 4 to 14 weeks relative to control; format: functional, organism-based
[8] = system: Cyperus; assay: Herbicidal activity against Cyperus at 190 l/ha applied 12 days prior to tomato transplantation measured after 4 weeks relative to control; format: functional
[9] = system: Solanum lycopersicum; assay: Increase in Solanum lycopersicum (tomato) plant yield at 760 l/ha applied 12 days prior to transplantation measured after 12 to 14 weeks relative to untreated-control; format: functional
[10] = system: Belonolaimus; assay: Nematocidal activity against Belonolaimus at 190 to 950 l/ha applied 12 days prior to tomato transplantation measured after 14 weeks; format: functional, organism-based
[11] = system: Solanum lycopersicum; assay: Increase in Solanum lycopersicum (tomato) plant vigor at 190 to 950 l/ha applied 12 days prior to transplantation measured after 10 weeks; format: functional, organism-based

For `CC1CO1` (stereo unspecified) [PROPYLENE OXIDE], the “fold change (FC)” value [1] was 3.5, the Activity [2] was “Active” and the Activity [3] was 80%. It also gave an Activity [4] of 0.51%, an Activity [5] of 3.25% and an Activity [6] of 80%. The Activity [7] was “Active”, the Activity [8] was 80% and the “fold change (FC)” value [9] was 4.1. The Activity [10] was “Active” and the Activity [11] was “Active”.
